# Results from patent publication US9974305B2, “Fungicidal or bactericidal composition, and method for controlling diseases” (NISSAN CHEMICAL INDUSTRIES, LTD., priority 2014, dated 2018).
# Assays:
# [1] = tested on: cucumber gray mold fungus (Botrytis cinerea); experiment: Preventive test against gray mold on cucumber cotyledon leaves, spray treatment, preventive value and Colby expected value (Test Examples 1-4); type: in vivo; details: single compound
# Experimental: Using the following compound listed in Table 2 (the active ingredient A) and the compound listed in Table 5 through Table 15 (active ingredient B), an agent was prepared in accordance with the above Formulation Example. This agent was diluted with water to a predetermined concentration to obtain a test solution. Then, cucumber (variety: Sagami-hanjiro) was planted in a plastic pot of 90 cm^3, and in the cotyledon stage, 5 ml of the obtained test solution, was sprayed by a spray gun and air-dried. Thereafter, the treated leaf was cut off and placed in a plastic container which filled approximately 0.5 cm in depth water. A suspension of conidia of cucumber gray mold fungus (Botrytis cinerea) and a dissolved PDA culture medium were mixed at a ratio of 1:1 (mass ratio), and the mixture was dropped to inoculate the treated leaf with 30 μl. After the inoculation, the plastic container was sealed and left at 20° C. for 3 days, the ratio of the formed lesion occupying the inoculated leaf was measured, and the preventive value was calculated in accordance with the following calculation formula. Preventive value=[1−(treated plot lesion area ratio/untreated plot lesion area ratio)]×100
# Further, from the preventive value at each agent concentration, synergy was calculated by using the Colby method (Colby S. R. 1976, Weeds 15, 20-22). The calculation method is as follows. E=X+Y−XY/100
# X: preventive value of A agent at x concentration
# Y: preventive value of B agent at y concentration
# E: theoretical value expected by treatment of the mixture of A agent and B agent.
# The obtained result is analyzed to be synergy if the observed value is larger than the expected value, to be antagonism if the expected value is larger than the observed value, and to be an additive effect if the observed value and the expected value are the same.
# Using the following compound listed in Table 2 (active ingredient A) and the following compound listed in Table 5 through Table 15 (active ingredient B) as active ingredients, a preventive test against gray mold was conducted in accordance with the method described in Test Example 1.
# Using the following compound listed in Table 2 (active ingredient A) and the following compound listed in Table 5 or Table 6 (active ingredient B) as active ingredients, a preventive test against gray mold was conducted in accordance with the method described in Test Example 1.
# Using the following compound listed in Table 2 (active ingredient A) and the following compound listed in Table 6 through Table 16 (active ingredient B) as active ingredients, a preventive test against gray mold was conducted in accordance with the method described in Test Example 1.
# [2] = tested on: cucumber downy mildew (Pseudoperenospora cubensis); experiment: Efficacy test on cucumber downy mildew, spray treatment and prevention test (Test Example 7); type: in vivo; details: single compound 250 ppm; lesion area ratio
# Experimental: An agent comprising the following compound listed in Table 2 (active ingredient A) and the compound listed in Table 6 (C40: active ingredient B) as active ingredients, was prepared in accordance with the above Formulation Example. This agent was diluted with water to a predetermined concentration to obtain a test solution. Then, to seedlings of cucumber (variety: Sagami-hanjiro) at 1.5-leaf stage grown in a pot with a diameter of 7 cm, the test solution was applied by a spray gun in an amount of 10 ml per pot, for treatment. One day after the treatment, a spore suspension (2×100,000 cfu/ml) of cucumber downy mildew (Pseudoperenospora cubensis), was spray-inoculated, and the pot was placed in a moist chamber set in temperature of 20° C. and humidity more than 95% RH for 24 hours. After placing the pot in a glass greenhouse for 6 days, the ratio of the formed lesion area occupying the inoculated leaves was measured, and the preventive value was calculated in accordance with the following formula. Preventive value=[1−(treated plot lesion area ratio/untreated plot lesion area ratio)]×100
# (§1) Further, from the preventive value for each agent concentration, synergy was calculated by using the Colby method (Colby S. R. 1976, Weeds 15, 20-22).
# [3] = tested on: cucumber powdery mildew (Sphaerotheca cucurbitae); experiment: Efficacy test on cucumber powdery mildew, irrigation treatment (Test Example 11); type: in vivo; details: concentration 500 ppm, cucumber (Sagami-hanjiro)
# Experimental: An agent comprising the following compound listed in Table 2 (active ingredient A) and the compound listed in Table 6 (C18: active ingredient B), was prepared in accordance with the above Formulation Example. This agent was diluted with water to a predetermined concentration to obtain a test solution. 5 ml of the test solution was irrigated by a pipette to the close-to-ground part of cucumber seedlings at the 1 leaf stage (variety: Sagami-hanjiro), grown in a styrol cup with a diameter of 10 cm, and next day, the seedlings were transplanted to the to 4 cun pots. Then, after cultivation for 7 days in a glass greenhouse, to the first true leaf of the cucumber, a spore suspension (100,000 cfu/ml) of cucumber powdery mildew (Sphaerotheca cucurbitae) was inoculated by spraying. After 10 days in a glass greenhouse, the ratio of the formed lesion area occupying the inoculated leaves was measured, and the preventive value was calculated in accordance with the following formula. Preventive value=[1−(treated plot lesion area ratio/untreated plot lesion area ratio)]×100
# (§2) Further, from the preventive value at each agent concentration, synergy was calculated by using the Colby method (Colby S. R. 1976, Weeds 15, 20-22).
# [4] = tested on: rice sheath blight fungus (Rhizoctonia solani); experiment: Efficacy test on rice sheath blight, spray treatment and prevention test (Test Examples 5-6); type: in vivo; details: single compound 250 ppm, lesion height
# Experimental: An agent comprising the following compound listed in Table 2 (active ingredient A) and the compound listed in Table 6 (C17: active ingredient B) as active ingredients, was prepared in accordance with the above Formulation Example. The agent was diluted with water to a predetermined concentration to obtain a test solution. Then, in a plastic pot of 90 cm^3, rice (Nipponbare) was seeded by 5 grains in one place, and to the grown seedlings in 4 seedling phase, the test solution was applied by a spray gun in an amount of 5 ml per pot, for treatment.
# One day after the treatment, 1 g of mycelium flora of rice sheath blight fungus (Rhizoctonia solani) cultured in bran medium, was put by […] to a close-to-ground part of seedlings, and the pot was placed in a moist chamber set in temperature of 25° C. and humidity more than 95% RH for eight days. The height of the lesions which appeared in the highest position from the close-to-ground part (lesion height) was investigated, and the preventive value was calculated in accordance with the following formula. Preventive value=[1−(treated plot lesion height/untreated plot lesion height)]×100
# as §1
# Using the following compound listed in Table 2 (active ingredient A) and the compound listed in Table 6 (C17: active ingredient B) as active ingredients, a preventive test on rice sheath blight was conducted in accordance with the above Test Example 5.
# [5] = tested on: wheat glume blotch (Leptosphaeria nodorum); experiment: Efficacy test on wheat glume blotch, spray treatment and prevention test (Test Example 8); type: in vivo; details: spray, lesion area ratio
# Experimental: An agent comprising the following compound listed in Table 2 (active ingredient A) and the following compound listed in Table 6, Table 11 or Table 15 (active ingredient B) as active ingredients, was prepared in accordance with the above Formulation Example. This agent was diluted with water to a predetermined concentration to obtain a test solution. Then, to seedlings of wheat (variety: Haruyutaka) at the 1-leaf stage, seeded in a pot with a diameter of 7 cm, with 5 seeds per pot, and grown for 7 days, the test solution was applied by a spray gun in an amount of 5 ml per pot, for treatment. One day after the treatment, a spore suspension (1×100,000 cfu/ml) of wheat glume blotch (Leptosphaeria nodorum) was spray-inoculated, and the pot was placed in a moist chamber set in temperature of 20° C. and humidity more than 95% RH for 48 hours. After placing the pot in a glass greenhouse for 7 days, the ratio of the formed lesion area occupying the inoculated leaves was measured, and the preventive value was calculated in accordance with the following formula. Preventive value=[1−(treated plot lesion area ratio/untreated plot lesion area ratio)]×100
# as §1
# [6] = tested on: wheat powdery mildew (Blumeria graminis); experiment: Efficacy test on wheat powdery mildew, seed treatment (Test Example 10); type: in vivo; details: wheat (Norin 61)
# Experimental: An agent comprising the following compound listed in Table 2 (active ingredient A) and the compound listed in Table 11 (H35: active ingredient B) as active ingredients, was prepared in accordance with the above Formulation Example. This agent was diluted with water to a predetermined concentration to obtain a test solution. A predetermined amount of test solution was put in a glass bottle of 5 ml, and 0.5 g (approximately 15 grains) of wheat seeds (variety: Norin 61) were added, stirred and air-dried. In each pot with a diameter of 7 cm and having soil put therein, 3 grains were seeded and grown for 14 days. To the wheat seedlings grown to the 1-leaf stage, a spore suspension (100,000 cfu/ml) of wheat powdery mildew (Blumeria graminis) was spray-inoculated. After placing the pot in a glass greenhouse for 10 days, the ratio of the formed lesion area occupying the inoculated leaves was measured, and the preventive value was calculated in accordance with the following formula. Preventive value=[1−(treated plot lesion area ratio/untreated plot lesion area ratio)]×100
# as §2
# [7] = processing amount 5 mg/1 g seed
# [8] = processing amount 10 mg/1 g seed
melting point [°C],Structure (SMILES),"Preventive value ([1]; Test Example 2, 1 ppm spray)","Preventive value ([1]; Test Example 3, 1 ppm spray)","Preventive value ([1]; Test Example 4, 1 ppm spray)",Preventive value [2],Preventive value [3],Preventive value ([4]; Test Example 6),Preventive value ([5]; single compound 3 ppm),Preventive value ([5]; single compound 10 ppm),"Preventive value ([1]; Test Example 1, 3 ppm spray)","Preventive value ([1]; Test Example 3, 3 ppm spray)","Preventive value ([1]; Test Example 4, 3 ppm spray)","Preventive value [6, 7]","Preventive value [6, 8]",Preventive value ([4]; Test Example 5),"Preventive value ([1]; Test Example 2, 3 ppm spray)"
,CC(C)ON=C(CNC(=O)c1ccccc1C(F)(F)F)c1ncc(Cl)c(S(C)(=O)=O)c1Cl [compound 32],94,90,80,0,30,6,60,85,,,,,,,
,CON=C(CNC(=O)c1cccnc1Cl)c1ncc(C#CC(C)(C)C)cc1Cl [compound 35],,,,0,30,5,50,70,88,90,88,20,61,,
,CC#Cc1cnc(C(CNC(=O)c2ccccc2C(F)(F)F)=NOC(C)C)c(Cl)c1 [compound 18],,,,0,35,,50,65,88,85,75,62,98,8,
,O=C(NCC(=NOCC(F)(F)F)c1ncc(Cl)cc1Cl)c1ccccc1C(F)(F)F [compound 33],,,,0,15,4,20,45,,45,50,20,61,,45
,CC#Cc1cnc(C(CNC(=O)c2cn(C)nc2C(F)F)=NOC(C)(C)C)c(Cl)c1 [compound 34],63,70,50,5,60,5,80,85,,,,20,85,,
,CCC(C)ON=C(CNC(=O)c1cn(C)nc1C(F)F)c1ncc(C#CC2CC2)cc1Cl (mixture of isomers) [Compound No. 27],,,,0,60,8,75,85,,55,45,85,90,,50
74 to 76,"CO/N=C(/CNC(=O)c1ccccc1C(F)(F)F)c1ncc(Cl)c(OC)c1Cl [Compound No. 8, (Z)—N-[2-[3,5-dichloro-4-(methoxy)pyridin-2-yl]-2-(methoxyimino)ethyl]-2-(trifluoromethyl)benzamide]",,,,,,,,,,,,,,,
,CON=C(CNC(=O)c1ccccc1C(F)(F)F)c1ncc(C#CC2CC2)cc1Cl [compound 36],,,,0,35,,55,70,75,80,80,99,100,0,
